Read-outs that look alike come from different tables or passages of the source.
Legend:
[1] = Maximum solubility of cyclodextrins in hydrochloric acid solution pH 1.2
Method: (§1) Different kinds of cyclodextrins were dissolved with an aqueous hydrochloric acid solution (0.1N) having a pH value of 1.2 to determine the saturation concentration of each cyclodextrin.
(1) A certain amount of α-, β- and γ-cyclodextrin were weighed and added into a 10 mL volumetric flask, then an aqueous hydrochloric acid solution of pH 1.2 was gradually added until reaching the scale of the flask, and the flask was shocked and ultrasound was performed to dissolve the cyclodextrin. The maximum amount of cyclodextrin capable of being dissolved in a 10 mL solution was recorded.

[2] = for Water (water-addition-precipitating critical point of drug solution): 100 mg drug; for dissolution in aqueous solution containing surfactant: magnetic stirring 1 hour
Method: In this study, a dissolution test was performed using a single non-aqueous solvent ethanol.
In this study, a dissolution test was also performed using composite solvents composed of PEG400 or PEG200 and absolute ethanol, respectively.
In addition, in this study, dissolution tests were also performed using a single non-aqueous solvent propylene glycol, or a composite solvent composed of propylene glycol and other non-aqueous solvent.
Next, the dilution stability of these two solvent systems was tested.

[3] = API 0.5 mg/ml, 20% γ-CD, molar ratio 174:1
Method: as §1
A certain amount of API was weighed and added into an appropriate volume of the cyclodextrin solution. […] The clear solution after the pH adjustment was left to stand to observe the state of the solution after standing for 2 hours, 4 hours, and 24 hours.

[4] = Tablet stability at high temperature (60° C.), high humidity (92.5% RH), −20° C.; type: physicochemical
[5] = Concentration of drug-containing HP-β-CD preparation after filtration (HPLC); conditions: 21 mg/ml drug-containing preparation in 30% HP-β-CD, pH 1.2; API not completely dissolved after 30 minutes ultrasound; 0.45 μm PES filter

OC[C@H]1O[C@@H]2O[C@H]3[C@H](O)[C@@H](O)[C@@H](O[C@H]4[C@H](O)[C@@H](O)[C@@H](O[C@H]5[C@H](O)[C@@H](O)[C@@H](O[C@H]6[C@H](O)[C@@H](O)[C@@H](O[C@H]7[C@H](O)[C@@H](O)[C@@H](O[C@H]8[C@H](O)[C@@H](O)[C@@H](O[C@H]1[C@H](O)[C@H]2O)O[C@@H]8CO)O[C@@H]7CO)O[C@@H]6CO)O[C@@H]5CO)O[C@@H]4CO)O[C@@H]3CO [β-cyclodextrin]
maximum solubility [1]: about 1%

OC[C@H]1O[C@@H]2O[C@H]3[C@H](O)[C@@H](O)[C@@H](O[C@H]4[C@H](O)[C@@H](O)[C@@H](O[C@H]5[C@H](O)[C@@H](O)[C@@H](O[C@H]6[C@H](O)[C@@H](O)[C@@H](O[C@H]7[C@H](O)[C@@H](O)[C@@H](O[C@H]1[C@H](O)[C@H]2O)O[C@@H]7CO)O[C@@H]6CO)O[C@@H]5CO)O[C@@H]4CO)O[C@@H]3CO [α-cyclodextrin]
maximum solubility ([1]; aqueous hydrochloric acid solution of a pH value of 1.2): about 8%

O=C(Cc1ccc(-c2ccc(N3CCOCC3)cc2)cn1)NCc1cccc(F)c1.O=S(=O)(O)c1ccccc1 [KX2-361.benzene sulfonate]
Water (water-addition-precipitating critical point of drug solution) ([2]; Cremophor EL 17.1 g, 40° C.): 6.7 g | Water (water-addition-precipitating critical point of drug solution) ([2]; Solutolo HS-15 10 g, 40° C.): 4.5 g | Water (water-addition-precipitating critical point of drug solution) ([2]; Solutolo HS-15 15 g, 28° C.): 8.7 g | Water (water-addition-precipitating critical point of drug solution) ([2]; Solutolo HS-15 20 g, 28° C.): 12.6 g | dissolution in aqueous solution containing surfactant ([2]; drug containing 10 mg of KX2-361 in 0.6% Poloxamer 188 aqueous solution (50 ml)): failed to completely dissolve | dissolution in aqueous solution containing surfactant ([2]; drug containing 10 mg of KX2-361 in 2% Tween80 aqueous solution (50 ml)): failed to completely dissolve | dissolution in aqueous solution containing surfactant ([2]; drug containing 10 mg of KX2-361 in 8% Solutol HS15 aqueous solution (50 ml)): failed to completely dissolve | dissolution in aqueous solution containing surfactant ([2]; drug containing 10 mg of KX2-361 in 10% Cremophor EL aqueous solution (50 ml)): failed to completely dissolve | dissolution in propylene glycol ([2]; drug containing 50 mg of KX2-361 in 20 ml of propylene glycol alone, a trace of small particles still present): could substantially be dissolved | solubility in ethanol ([2]; ethanol (95% v/v)): 1120 to 2380 µg/mL | Solution phenomenon when the pH value was adjusted to 4 [3]: turbid | Total impurity (%) ([4]; 0 day): 0.33% | Total impurity (%) ([4]; High humidity, 20 days): 0.31% | Total impurity (%) ([4]; High temperature, 10 days): 0.32% | Total impurity (%) ([4]; High temperature, 20 days): 0.32% | Total impurity (%) ([4]; −20° C., 20 days): 0.36% | concentration after filtration, calibrated with HPLC [5]: 20660 µg/mL

OC[C@H]1O[C@@H]2O[C@H]3[C@H](O)[C@@H](O)[C@@H](O[C@H]4[C@H](O)[C@@H](O)[C@@H](O[C@H]5[C@H](O)[C@@H](O)[C@@H](O[C@H]6[C@H](O)[C@@H](O)[C@@H](O[C@H]7[C@H](O)[C@@H](O)[C@@H](O[C@H]8[C@H](O)[C@@H](O)[C@@H](O[C@H]9[C@H](O)[C@@H](O)[C@@H](O[C@H]1[C@H](O)[C@H]2O)O[C@@H]9CO)O[C@@H]8CO)O[C@@H]7CO)O[C@@H]6CO)O[C@@H]5CO)O[C@@H]4CO)O[C@@H]3CO [γ-cyclodextrin]
maximum solubility [1]: about 20%

From patent publication US11007141B2, “Oral preparation and preparation method thereof” (GUANGZHOU XIANGXUE PHARMACEUTICAL CO., LTD., priority 2015, dated 2021)
